Measured values: article PMC4533973, “Synthesis and Evaluation of Chloramphenicol Homodimers: Molecular Target, Antimicrobial Activity, and Toxicity against Human Cells” (PLoS ONE, 2015)

How the values were obtained:
Jurkat cells = assay: Toxicity assays in Jurkat cells (cell counting, necrosis and apoptosis by flow cytometry); format: cell-based, Human
Description: Fig 8 Toxicity assays in Jurkat cells. Jurkat cells were adjusted to 1×10^9 cells/L in RPMI-1640 medium containing 1% Penicillin/Streptomycin and 10% fetal bovine serum. The cells were grown in triplicate in the presence or absence of compound 5 at the indicated concentrations for 4 days at 37°C, under a humidified 5% CO2 atmosphere. CAM was used as a reference compound. For cell necrosis and apoptosis assays, samples (10^6 cells) were collected daily and determined by flow cytometry. Apoptotic and necrotic cells were expressed as a percentage of total cells.
(§1) Human leukemic cell lines, HS-Sultan (Burkitt’s lymphoma), Jurkat (T-cell acute lymphoblastic leukemia), and U937 (histiocytic lymphoma), were adjusted to 1×10^9 cells/l in RPMI-1640 medium supplemented with 10% fetal bovine serum and 1% penicillin/streptomycin. The cells were grown in triplicate in the absence (control cultures) or presence of CAM or CAM dimers for 4 days at 37°C, under a humidified 5% CO2 atmosphere. The medium was changed daily; CAM or CAM dimer addition was repeated after medium change. Aliquots were collected daily and counted in a CELL-DYN 3700 Hematology Analyzer. For cell necrosis and apoptosis assays, samples (10^6 cells) were collected and determined using the Annexin V-PE Apoptosis Detection Kit I (BD Pharmingen) for flow cytometry, according to the manufacturers’ instructions. Flow cytometry data were analyzed using the FlowJo flow cytometry analysis software. Necrotic and apoptotic cells were expressed as a percentage of total cells.

U937 cells = assay: Toxicity assay in leukemic cell line (cell counting); format: cell-based, Human; conditions: daily cell counting
Description: as §1
(§2) S4 Fig. Toxicity assays in Human leukemic cell lines. HS-Sultan, Jurkat, and U937 cell lines were adjusted to […] in RPMI-1640 medium containing 1% Penicillin/Streptomycin and 10% fetal bovine serum. […] Aliquots were collected daily and counted in a CELL-DYN 3700 Hematology Analyzer.

HS-Sultan cells = assay: as above; format: cell-based, Human; conditions: daily cell counting
Description: as §1, §2

[1] = test system: 70S ribosomes from E. coli (23S rRNA); assay: Crosslinking of CAM dimers to ribosomes upon 365 nm irradiation; format: binding; conditions: R*I complex, 365 nm light for 30 min, compound at 10×K i
Description: Specifically, a mixture of E. coli ribosomes together with either 4 or 5, each added to the incubation mixture at concentration equal to 10×K i, were irradiated for 30 min with 365 nm light. Following purification, the irradiation products were analyzed by primer extension. […] In contrast, compound 4 crosslinked to C2611, without raising any modification signal in the A2058-A2059 region. It should be mentioned that the concentrations used for compounds 4 and 5 in this series of experiments were much lower (<60 μM) than those of CAM utilized previously by Long & Porse. […]
Fig 5 CAM dimer crosslinking at the entrance to the exit tunnel, upon UV-irradiation. […] The irradiation products were analyzed by probing with DMS (panels A and B) or CMCT (panel C) and primer extension, before (lanes 3 and 6) or after discharging from excess CAM dimer (lanes 2 and 5). […]
Following formation of R*I complexes, the samples were irradiated at 365 nm, for 30 min, in a Vilber Lourmat UV Cabinet (VL-215.LC-30W) light source. […] Half of the sample was probed with DMS or CMCT, and then analyzed by primer extension as shown above, while the other half was extracted with phenol, phenol-chloroform (1:1), and chloroform, followed by ethanol precipitation to remove non-crosslinked agents. […]

## O=C(N[C@H](CO)[C@H](O)c1ccc([N+](=O)[O-])cc1)c1ccc(C(=O)N[C@H](CO)[C@H](O)c2ccc([N+](=O)[O-])cc2)cc1 [Compound 5, N^1,N^4-Bis ((1R,2R)-1,3-dihydroxy-1-(4-nitrophenyl)propan-2-yl)-terephthalamide]
Jurkat cells; 60 μM, flow cytometry
  apoptosis, expressed as a percentage of total cells: 43%
  necrosis: failed to induce necrosis
Jurkat cells; daily cell counting, all tested concentrations
  growth of Jurkat cells: the rate of growth was reduced proportionally to the concentration
U937 cells
  sensitivity of U937 cells: insensitive
HS-Sultan cells
  sensitivity of HS-Sultan cells: insensitive
[1]
  nucleoside(s) of 23S rRNA crosslinked: C2610, and less to nucleosides A2058 and A2059
